Assays:
[1] = Solid cyanine dye stability comparison; type: physicochemical; settings: storage
Text: Decomposition of the solid dye results in a red coloration of the solid and the solution. Carboxylic acid esters, especially methyl ester, are particularly sensitive in addition to the bromides.

[2] = Fluorescence quantum yield; type: physicochemical; settings: CHCl3; Reference: S-13 with Φ=1.00
Text: IR spectra: Perkin Elmer Spectrum BX II, using a diamond anvil cell; UV/Vis spectra: Varian Cary 5000 and Bruins Omega 20; fluorescence spectra: Varian Eclispe; NMR spectroscopy: Varian Vnmrs 600 (600 MHz, 400 MHz, 200 MHz); mass spectrometry: Thermo Finnigan LQT FT.

lens capsule = experiment: Dye tests on porcine eyes (lens capsule staining); set-up: key: +++: visually assessed very strong coloration; ++: good coloration; +: satisfactory coloration; −: weak or absent coloration; settings: incubated, rinsed after one minute
Description: For the dye test, in each case 5 mg dye was dissolved in 500 μL ethanol and diluted to 2 mL with BSS Plus solution as the stock solution, and then correspondingly further diluted. As an alternative, one can prepare stock solutions of the dye by dissolving, for example, 5 mg dye in 1 mL distilled water, adding 7 mL BSS solution and then combining with 1 mL NaCl solution having an osmolality of 620 (approximately 2%) in order to restore the original osmolality of the BSS solution (308). This stock solution can be correspondingly further diluted with BSS solution as required. Enucleated porcine eyes were used having a post mortem time period of a few hours. To dye the lens capsule, the cornea was first removed. Thereafter, the iris was resected and the capsular support was severed. The lens with intact lens capsule was removed and placed in a bowl filled with BSS. The lenses were thereafter incubated with the dyes according to the invention at various concentrations and then rinsed after one minute. The dye pattern was photographically documented, whereby the coloration was assessed without additional illumination, and fluorescence was assessed with illumination (Xenon lamp, halogen lamp with typical endoillumination source and fiber optics). The lens capsule is a very good model for dyeing due to the fact that it is a basal membrane, as is the ILM of the retina. Both structures are important target structures in eye surgery.

Compound	Stability [1]	Fluorescence quantum yield [2]	coloration of lens capsule (lens capsule; dye concentration 0.5%)	coloration of lens capsule (lens capsule; dye concentration 1.0)	coloration of lens capsule (lens capsule; dye concentration 0.0025%)	coloration of lens capsule (lens capsule; dye concentration 0.025%)	coloration of lens capsule (lens capsule; dye concentration 0.25%)
3,3′-Di-(5-bromodecyl)-1,1,1′,1′-tetramethyl-1H-dibenzo[e]indocarbocyanine bromide [Dye 3x]	No decomposition after 4 months	0.10					
3,3′-Di-(5-bromopentyl)-1,1,1′,1′-tetramethyl-1H-dibenzo[e]indocarbocyanine bromide [Dye 3y]	No decomposition after 4 months	0.15					
3,3′-Di-(5-brompentyl)-1,1,1′,1′-tetramethyl-1H-disulfobenzo[e]indocarbocyanine bromide [Dye 6h]	Decomposition after a few days	0.19	decomposed	decomposed			
3,3′-Di-(10-bromodecyl)-1,1,1′,1′-tetramethyl-1H-disulfobenzo[e]indocarbocyanine bromide [Dye 6i]	Decomposition after 2 days	0.13	decomposed	decomposed			
CC1(C)C(/C=C/C=C2\N(CCC(=O)O)c3ccc4ccccc4c3C2(C)C)=[N+](CCC(=O)O)c2ccc3ccccc3c21.[Br-] [Dye 3a, 3,3′-Di-(2-carboxyethyl)-1,1,1′,1′-tetramethyl-1H-dibenzo[e]indocarbocyanine bromide]		0.35	++		−	+	++
CC1(C)C(=CC=CC2=[N+](CCCCC(=O)O)c3ccc4ccccc4c3C2(C)C)N(CCCCC(=O)O)c2ccc3ccccc3c21.[Br-] [Dye 3b, 3,3′-Di-(4-carboxybutyl)-1,1,1′,1′-tetramethyl-1H-dibenzo[e]indocarbocyanine bromide]		0.49					
CC1(C)C(=CC=CC2=[N+](CCCCCC(=O)O)c3ccc4ccccc4c3C2(C)C)N(CCCCCC(=O)O)c2ccc3ccccc3c21.[Br-] [Dye 3c, 3,3′-Di-(5-carboxypentyl)-1,1,1′,1′-tetramethyl-1H-dibenzo[e]indocarbocyanine bromide]		0.50	+++		−	−	+++
CC1(C)C(=CC=CC2=[N+](CCCCCCCC(=O)O)c3ccc4ccccc4c3C2(C)C)N(CCCCCCCC(=O)O)c2ccc3ccccc3c21.[Br-] [Dye 3d, 3,3′-Di-(7-carboxyheptyl)-1,1,1′,1′-tetramethyl-1H-dibenzo[e]indocarbocyanine bromide]		0.43	+++		−	−	+
CC1(C)C(=CC=CC2=[N+](CCCCCCCCCC(=O)O)c3ccc4ccccc4c3C2(C)C)N(CCCCCCCCCC(=O)O)c2ccc3ccccc3c21.[Br-] [Dye 3e, 3,3′-Di-(9-carboxynonyl)-1,1,1′,1′-tetramethyl-1H-dibenzo[e]indocarbocyanine bromide]		0.59	++		−	−	++
CC1(C)C(=CC=CC2=[N+](CCCCCCCCCCC(=O)O)c3ccc4ccccc4c3C2(C)C)N(CCCCCCCCCCC(=O)O)c2ccc3ccccc3c21.[Br-] [Dye 3f, 3,3′-Di-(10-carboxydecyl)-1,1,1′,1′-tetramethyl-1H-dibenzo[e]indocarbocyanine bromide]		0.33					
CC1(C)C(=CC=CC2=[N+](CCCCCCCCCCCC(=O)O)c3ccc4ccccc4c3C2(C)C)N(CCCCCCCCCCCC(=O)O)c2ccc3ccccc3c21.[Br-] [Dye 3g, 3,3′-Di-(11-carboxyundecyl)-1,1,1′,1′-tetramethyl-1H-dibenzo[e]indocarbocyanine bromide]		0.35	++		−	−	++
COC(=O)CCN1C(=CC=CC2=[N+](CCC(=O)OC)c3ccc4ccccc4c3C2(C)C)C(C)(C)c2c1ccc1ccccc21.[Br-] [Dye 3h, 3,3′-Di-(2-methoxycarbonylethyl)-1,1,1′,1′-tetramethyl-1H-dibenzo[e]indocarbocyanine bromide]		0.24	+++		−	+	++
COC(=O)CCCCN1C(=CC=CC2=[N+](CCCCC(=O)OC)c3ccc4ccccc4c3C2(C)C)C(C)(C)c2c1ccc1ccccc21.[Br-] [Dye 3i, 3,3′-Di-(4-methoxycarbonylbutyl)-1,1,1′,1′-tetramethyl-1H-dibenzo[e]indocarbocyanine bromide]		0.40	++		−	+	+
COC(=O)CCCCCCCCCN1C(=CC=CC2=[N+](CCCCCCCCCC(=O)OC)c3ccc4ccccc4c3C2(C)C)C(C)(C)c2c1ccc1ccccc21.[Br-] [Dye 3j, 3,3′-Di-(9-methoxycarbonylnonyl)-1,1,1′,1′-tetramethyl-1H-dibenzo[e]indocarbocyanine bromide]		0.47	++		−	−	+
COC(=O)CCCCCCCCCCN1C(=CC=CC2=[N+](CCCCCCCCCCC(=O)OC)c3ccc4ccccc4c3C2(C)C)C(C)(C)c2c1ccc1ccccc21.[Br-] [Dye 3k, 3,3′-Di-(10-methoxycarbonyldecyl)-1,1,1′,1′-tetramethyl-1H-dibenzo[e]indocarbocyanine bromide]		0.36	++		−	−	+
CCOC(=O)CCN1C(=CC=CC2=[N+](CCC(=O)OCC)c3ccc4ccccc4c3C2(C)C)C(C)(C)c2c1ccc1ccccc21.[Br-] [Dye 3l, 3,3′-Di-(2-ethoxycarbonylethyl)-1,1,1′,1′-tetramethyl-1H-dibenzo[e]indocarbocyanine bromide]		0.33	+++		−	+	+++
CCOC(=O)CCCN1C(=CC=CC2=[N+](CCCC(=O)OCC)c3ccc4ccccc4c3C2(C)C)C(C)(C)c2c1ccc1ccccc21.[Br-] [Dye 3m, 3,3′-Di-(3-ethoxycarbonylpropyl)-1,1,1′,1′-tetramethyl-1H-dibenzo[e]indocarbocyanine bromide]		0.61	+++		−	−	++
CCOC(=O)CCCCN1C(=CC=CC2=[N+](CCCCC(=O)OCC)c3ccc4ccccc4c3C2(C)C)C(C)(C)c2c1ccc1ccccc21.[Br-] [Dye 3n, 3,3′-Di-(4-ethoxycarbonylbutyl)-1,1,1′,1′-tetramethyl-1H-dibenzo[e]indocarbocyanine bromide]		0.43	++		−	−	+
CCOC(=O)CCCCCN1C(=CC=CC2=[N+](CCCCCC(=O)OCC)c3ccc4ccccc4c3C2(C)C)C(C)(C)c2c1ccc1ccccc21.[Br-] [Dye 3o, 3,3′-Di-(5-ethoxycarbonylpentyl)-1,1,1′,1′-tetramethyl-1H-dibenzo[e]indocarbocyanine bromide]		0.36	++		−	−	++
CCOC(=O)CCCCCCN1C(=CC=CC2=[N+](CCCCCCC(=O)OCC)c3ccc4ccccc4c3C2(C)C)C(C)(C)c2c1ccc1ccccc21.[Br-] [Dye 3p, 3,3′-Di-(6-ethoxycarbonylhexyl)-1,1,1′,1′-tetramethyl-1H-dibenzo[e]indocarbocyanine bromide]		0.35					
CC1(C)C(/C=C/C=C2\N(CCCCS(=O)(=O)O)c3ccc4ccccc4c3C2(C)C)=[N+](CCCCS(=O)(=O)[O-])c2ccc3ccccc3c21 [Dye 3t, 3,3′-Di-(4-sulfobutyl)-1,1,1′,1′-tetramethyl-1H-dibenzo[e]indocarbocyanine bromide]	No decomposition after 3 years	0.32	+++		−	+	++

Source: patent US8835484B2, “Naphthocyanines for use as contrast agents” (Alamedics GmbH & Co. KG, priority 2010, dated 2014)
